In patent US5804576A, “Derivatives of 5-androsten-17-ones and 5-androstan-17-ones” (Research Corporation Technologies, Inc., priority 1986, dated 1998):
Several values for one entry are separate records, joined by “and”; a condition that tells them apart may be missing. Equal entries are not always repeated. Entries after “also recorded” stand apart in the source; their conditions may differ.

Columns and labels:
rat uterus = settings: 60 mg/kg s.c. for 3 days, sexually immature rats; cited from earlier work
[1] = system: cultured rat kidney epithelial cell line; settings: cited from earlier work
HeLa cell strain, TCRC-2 = settings: HeLa TCRC-2; cited from earlier work
C57BL/KsJ-db/db mice = settings: 0.4% of the diet; cited from earlier work
[2] = system: seminal vesicles plus prostate glands; assay: Androgenic and anti-androgenic activity (seminal vesicle plus prostate weight); assay type: in vivo, mouse (male A/J); settings: con't. experiment; five weeks; DHEA 0.54%; n = 5
[3] = system: DMBA produced papillomas and carcinomas; settings: topical; cited from earlier work
[4] = system: many different cell lines in culture; settings: 10^-5 M to 10^-4 M; cited from earlier work
[5] = system: Epstein-Barr virus-induced transformation of human lymphocytes; settings: cited from earlier work
[6] = system: TPA stimulation of 3H-thymidine incorporation in epidermis; assay: Inhibition of TPA stimulation of 3H-thymidine incorporation in epidermis, topical steroid; assay type: in vivo, mouse (A/J)
Experimental: Tumor promoters, such as TPA, stimulate hyperplasia and DNA synthesis when applied to the skin, and it is believed that this stimulation is an important step in the enhancement of tumorigenesis.
Incorporation of ^3 H-thymidine into A/J mouse epidermal DNA was determined as described in Pashko, L. L., Schwartz, A. G., Abou-Gharbia, M. and Swern, D. (1981), Inhibition of DNA synthesis in mouse epidermis and breast epithelium by dehydroepiandrosterone and related steroids, Carcinogenesis, 2, 717-721. Values are mean±SD for 3 separately treated mice in each group 20 hours after TPA application. DHEA or testosterone was added topically in 0.2 ml acetone one hour before TPA addition.

VY-A^vy /a mice = settings: long-term administration; cited from earlier work
cholesterol = settings: mouse, in vivo; cited from earlier work
[7] = system: [3H]DMBA binding to skin DNA; assay: [3H]DMBA binding to skin DNA, oral steroid; assay type: in vivo, mouse (male A/J); settings: four weeks treatment with 400 mg/kg
[8] = system: TPA (Tumor Promoter) Stimulation of Mouse Epidermal DNA; assay: Inhibition of TPA stimulation of mouse epidermal DNA synthesis (3H-thymidine incorporation), oral; assay type: in vivo, mouse (ICR male)
Outline: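 Shaved male ICR mice (7-9 weeks) got steroid orally in sesame oil (0.5 ml/mouse), then topical TPA (10 μg in acetone) 1 h later. After 20 h, i.p. 60 μCi ³H-thymidine 20 min before sacrifice; epidermal DNA labelling expressed as cpm per μg DNA (diphenylamine assay).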

[9] = system: [3H]DMBA binding to skin DNA; assay: [3H]DMBA binding to skin DNA, oral steroid; assay type: in vivo, mouse (male A/J)
Experimental: (§1) Male A/J mice were orally intubated with steroid suspended in sesame oil (0.5 ml/mouse) at the indicated dose. Mice not receiving steroid were given sesame oil alone. Food restricted mice received approximately 60% of food of Ad libitum fed for two weeks. One hour after oral intubation, topical [^3 H]DMBA was applied to the skin, and the amount bound to DNA was determined 12 hours later as described in Table 4.
as §1, with “alone.” for “alone. Food restricted mice received approximately 60% of food of Ad libitum fed for two weeks.”

[10] = system: spontaneous breast cancer in C3H mice; settings: long-term treatment; cited from earlier work

For `C[C@]12CC[C@H](O)CC1=CC[C@@H]1[C@@H]2CC[C@]2(C)C(=O)CC[C@@H]12` [DHEA, 3β-Hydroxy-5-androst-en-17-one, reference compound], the “uterine enlargement (in words)” value (rat uterus) is given as “produces uterine enlargement”, the “TPA stimulation of 3H-thymidine incorporation (in words)” value [1] is given as “antagonizes the capacity of the tumor promoter” and the “sensitivity to growth inhibition (in words)” value (HeLa cell strain, TCRC-2) is given as “particularly sensitive to DHEA-induced growth inhibition”. For the same compound, the “hypoglycemic effect (in words)” value (C57BL/KsJ-db/db mice) was “marked hypoglycemic effect”, the “lifespan (in words)” value (C57BL/KsJ-db/db mice) was “significantly prolonged their lifespan” and the “Mean Seminal Vesicle plus Prostate Weight ± S.D.” value [2] was 5.02 ± 0.41 mg/100 gm body weight. For the same compound, the “inhibition of DMBA produced papillomas and carcinomas (in words)” value [3] was “inhibits DMBA produced papillomas and carcinomas”, the “growth of cell lines in culture (in words)” value [4] was “slows the growth of many different cell lines in culture” and the “inhibition of Epstein-Barr virus-induced transformation (in words)” value [5] was “inhibitors of Epstein-Barr virus-induced transformation of human lymphocytes”. The “TPA stimulation of epidermal DNA synthesis (in words)” value [6] was “abolishes this stimulation”, the “development of obesity (in words)” value (VY-A^vy /a mice) was “prevented the development of obesity without suppressing appetite” and the “anti-hypercholesterolemic effect (in words)” value (cholesterol) was “anti-hypercholesterolemic effect”. The “3H-DMBA binding to skin DNA (in words)” value [7] was “does inhibit ^3 H-DMBA binding to skin DNA”, the “blocking the TPA stimulation in DNA synthesis rate (in words)” value ([8]; 200 mg/kg or 100 mg/kg oral) was “not at 200 mg/kg or 100 mg/kg” and the “blocking the TPA stimulation in DNA synthesis rate (in words)” value ([8]; 400 mg/kg oral) was “active at blocking the TPA stimulation in DNA synthesis rate at 400 mg/kg”. The “TPA stimulation in 3H-thymidine incorporation (in words)” value ([8]; oral, single administration) was “does not inhibit the TPA stimulation in epidermal ^3 H-thymidine incorporation to a degree comparable; also recorded: inactive”, the “SPECIFIC ACTIVITY ([3H]DMBA bound to skin DNA)” value ([9]; 400 mg/kg p.o., 12 hours) was 73.1 ± 16.5 cpm/ug DNA and 92 ± 17.6 cpm/ug DNA and the “3H-DMBA binding to skin DNA (in words)” value ([9]; oral, single administration) was “does not inhibit ^3 H-DMBA binding to skin DNA; also recorded: inactive”. The “spontaneous breast cancer development (in words)” value [10] was “markedly inhibits spontaneous breast cancer development” and the “weight gain (in words)” value [10] was “reducing weight gain without suppressing appetite”.

In the case of `C[C@H]1CC[C@@]2(C)C(=CC[C@@H]3[C@@H]2CC[C@]2(C)C(=O)CC[C@@H]32)C1` [Compound 16, 3β-methyl-5-androsten-17-one], the “inhibition of DMBA produced papillomas and carcinomas (in words)” value [3] is listed as “inhibits DMBA produced papillomas and carcinomas” and the “activity relative to DHEA (TPA stimulation of epidermal DNA synthesis)” value ([8]; oral dose-response, as active as DHEA) is listed as “about 3 X”.
